{"source": "paper PMC11360041", "about": "(ACS Omega, 2024)", "key": {"[1]": {"target": "T1, TMV coat protein (TMV-CP) (Tobacco mosaic virus, UniProt P69687)", "T1 sequence (P69687 2-159 limits assumed)": "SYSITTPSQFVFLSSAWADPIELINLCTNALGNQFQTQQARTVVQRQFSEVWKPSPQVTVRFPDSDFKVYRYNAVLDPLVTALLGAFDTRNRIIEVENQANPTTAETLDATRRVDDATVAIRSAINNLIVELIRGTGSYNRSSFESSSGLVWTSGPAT", "assay": "Microscale thermophoresis binding to TMV-CP"}, "Phytophthora capsici": {"system": "Phytophthora capsici", "assay_type": "cell-based", "settings": "read-out: Inhibition rate, Pc"}, "[2]": {"system": "Fusarium oxysporium f. sp. cucumeris", "assay_type": "cell-based", "settings": "read-out: Inhibition rate, Fc"}, "Sclerotinia sclerotiorum": {"system": "Sclerotinia sclerotiorum", "assay_type": "cell-based", "settings": "read-out: Inhibition rate, Ss"}, "Rhizoctonia solani": {"system": "Rhizoctonia solani", "assay_type": "cell-based", "settings": "read-out: Inhibition rate, Rs"}, "TMV [3]": {"system": "TMV", "assay": "Curative effect of compounds against TMV in vivo", "settings": "Tobacco mosaic virus, read-out: relative inhibition rate (%) curative effect"}, "Bipolaris maydis": {"system": "Bipolaris maydis", "assay_type": "cell-based", "settings": "read-out: Inhibition rate, Bm"}, "[4]": {"system": "14 kinds of phytopathogenic fungi", "assay": "Fungicidal activity against 14 kinds of phytopathogenic fungi", "assay_type": "cell-based", "settings": "read-out: inhibitory rate against three fungi"}, "watermelon anthracnose": {"system": "watermelon anthracnose", "assay": "organism not typed", "assay_type": "cell-based", "settings": "read-out: Inhibition rate, Wa"}, "TMV particles": {"system": "TMV particles", "assay": "Morphological observation of TMV particles via transmission electron microscopy", "parameters": "species or system tobacco mosaic virus", "settings": "500 mg/L"}, "TMV [5]": {"system": "TMV", "assay": "Protective effect of compounds against TMV in vivo", "parameters": "species or system tobacco mosaic virus", "settings": "Tobacco mosaic virus, read-out: relative inhibition rate (%) protective effect"}, "Alternaria solani": {"system": "Alternaria solani", "assay_type": "cell-based", "settings": "read-out: Inhibition rate, As"}, "Physalospora piricola": {"system": "Physalospora piricola", "assay_type": "cell-based", "settings": "read-out: Inhibition rate, Pp, 50 mg/L, Physalospora piricola"}, "Fusarium graminearum": {"system": "Fusarium graminearum", "assay": "microbe, parasite or virus in culture", "assay_type": "cell-based", "settings": "read-out: Inhibition rate, Fg"}, "TMV [6]": {"system": "TMV", "assay": "Inactivation effect of compounds against TMV in vivo", "parameters": "species or system tobacco mosaic virus", "settings": "Tobacco mosaic virus, read-out: relative inhibition rate (%) inactive effect"}, "Botrytis cinerea": {"system": "Botrytis cinerea", "assay_type": "cell-based", "settings": "read-out: Inhibition rate, Bc"}, "TMV [7]": {"system": "TMV", "settings": "cited from earlier work"}, "TMV [8]": {"system": "TMV", "settings": "500 mg/L; cited from earlier work"}, "TMV [9]": {"system": "TMV", "settings": "500 mg/L; cited from earlier work", "remark": "listed apart in the source"}, "TMV [10]": {"system": "TMV", "settings": "500 mg/L; cited from earlier work", "remark": "listed apart in the source"}}, "note": "Entries after “also recorded” stand apart in the source; their conditions may differ.", "data": [{"smiles": "COc1cccc(C=NNC(=O)Cn2ccc(=O)c3ccccc32)c1", "note": "[Compound 4]", "values": [{"measurement": "Kd", "setting": "[1]", "result": "142 ± 60", "unit": "nM"}, {"measurement": "inhibition at 50 µg/mL", "setting": "Phytophthora capsici", "result": "38.1 ± 1.7", "unit": "%"}, {"measurement": "inhibition at 50 µg/mL", "setting": "[2]", "result": "36.7 ± 1.4", "unit": "%"}, {"measurement": "inhibition at 50 µg/mL", "setting": "Sclerotinia sclerotiorum", "result": "36.6 ± 1.5", "unit": "%"}, {"measurement": "inhibition at 50 µg/mL", "setting": "Rhizoctonia solani", "result": "57.1 ± 2.3", "unit": "%"}, {"measurement": "inhibition at 100 µg/mL", "setting": "TMV [3]", "result": "14 ± 0.5", "unit": "%"}, {"measurement": "inhibition at 500 µg/mL", "setting": "TMV [3]", "result": "47.6 ± 2.5", "unit": "%"}, {"measurement": "inhibition at 50 µg/mL", "setting": "Bipolaris maydis", "result": "33.3 ± 1.4", "unit": "%"}, {"measurement": "inhibition at 50 µg/mL", "setting": "[4]", "result": "> 40", "unit": "%"}, {"measurement": "inhibition at 50 µg/mL", "setting": "watermelon anthracnose", "result": "39.5 ± 1.1", "unit": "%"}, {"measurement": "effect on the morphology of TMV particles (TEM)", "setting": "TMV particles", "result": "hindered the self-assembly and growth of TMV; also recorded: fragmented into shorter rods"}, {"measurement": "inhibition at 100 µg/mL", "setting": "TMV [5]", "result": "15.8 ± 2.5", "unit": "%"}, {"measurement": "inhibition at 500 µg/mL", "setting": "TMV [5]", "result": "46.3 ± 1.8", "unit": "%"}, {"measurement": "inhibition at 50 µg/mL", "setting": "Alternaria solani", "result": "61.5 ± 3.2", "unit": "%"}, {"measurement": "inhibition at 50 µg/mL", "setting": "Physalospora piricola", "result": "38.2 ± 1.7", "unit": "%"}, {"measurement": "inhibition at 50 µg/mL", "setting": "Fusarium graminearum", "result": "38.1 ± 1.9", "unit": "%"}, {"measurement": "inhibition at 100 µg/mL", "setting": "TMV [6]", "result": "16.8 ± 0.3", "unit": "%"}, {"measurement": "inhibition at 500 µg/mL", "setting": "TMV [6]", "result": "51.2 ± 1.9", "unit": "%"}, {"measurement": "inhibition at 50 µg/mL", "setting": "Botrytis cinerea", "result": "14.6 ± 0.7", "unit": "%"}]}, {"smiles": "CNCC(=O)N[C@@H](CO)C(=O)N[C@H]1[C@H](O)[C@@H](O)[C@H](n2ccc(N)nc2=O)O[C@@H]1C(N)=O", "note": "[Ningnanmycin]", "values": [{"measurement": "actual inhibitory effect in the field", "setting": "TMV [7]", "result": "lower than 60%"}]}, {"smiles": "Cn1ccc(=O)c2ccccc21", "note": "[echinopsine]", "values": [{"measurement": "protective activity against TMV", "setting": "TMV [8]", "result": 42.6, "unit": "%"}, {"measurement": "inactive activity against TMV", "setting": "TMV [9]", "result": 49.5, "unit": "%"}, {"measurement": "curative activity against TMV", "setting": "TMV [10]", "result": 46.1, "unit": "%"}]}, {"smiles": "NC(=O)c1ncn([C@@H]2O[C@H](CO)[C@@H](O)[C@H]2O)n1", "note": "[Ribavirin, reference compound]", "values": [{"measurement": "Kd", "setting": "[1]", "result": "512 ± 257", "unit": "nM"}, {"measurement": "inhibition at 100 µg/mL", "setting": "TMV [3]", "result": "10.1 ± 1.6", "unit": "%"}, {"measurement": "inhibition at 500 µg/mL", "setting": "TMV [3]", "result": "38 ± 2.2", "unit": "%"}, {"measurement": "effect on the morphology of TMV particles (TEM)", "setting": "TMV particles", "result": "fragmented into shorter rods"}, {"measurement": "inhibition at 100 µg/mL", "setting": "TMV [5]", "result": "13.4 ± 0.7", "unit": "%"}, {"measurement": "inhibition at 500 µg/mL", "setting": "TMV [5]", "result": "40.8 ± 1", "unit": "%"}, {"measurement": "inhibition at 100 µg/mL", "setting": "TMV [6]", "result": "12.1 ± 1.4", "unit": "%"}, {"measurement": "inhibition at 500 µg/mL", "setting": "TMV [6]", "result": "39.2 ± 3.5", "unit": "%"}]}, {"smiles": "O=C(Cn1ccc(=O)c2ccccc21)NN=Cc1ccc(-c2ccccc2)cc1", "note": "[Compound 11]", "values": [{"measurement": "inhibition at 50 µg/mL", "setting": "Phytophthora capsici", "result": "26.2 ± 1.5", "unit": "%"}, {"measurement": "inhibition at 50 µg/mL", "setting": "[2]", "result": "22.4 ± 1.3", "unit": "%"}, {"measurement": "inhibition at 50 µg/mL", "setting": "Sclerotinia sclerotiorum", "result": "22 ± 1.4", "unit": "%"}, {"measurement": "inhibition at 50 µg/mL", "setting": "Rhizoctonia solani", "result": "35.7 ± 2.2", "unit": "%"}, {"measurement": "inhibition at 100 µg/mL", "setting": "TMV [3]", "result": "10.1 ± 2", "unit": "%"}, {"measurement": "inhibition at 500 µg/mL", "setting": "TMV [3]", "result": "43 ± 2.7", "unit": "%"}, {"measurement": "inhibition at 50 µg/mL", "setting": "Bipolaris maydis", "result": "11.1 ± 0.9", "unit": "%"}, {"measurement": "inhibition at 50 µg/mL", "setting": "watermelon anthracnose", "result": "14 ± 1.7", "unit": "%"}, {"measurement": "inhibition at 100 µg/mL", "setting": "TMV [5]", "result": "20.9 ± 0.4", "unit": "%"}, {"measurement": "inhibition at 500 µg/mL", "setting": "TMV [5]", "result": "45.2 ± 1.1", "unit": "%"}, {"measurement": "inhibition at 50 µg/mL", "setting": "Alternaria solani", "result": "38.5 ± 2.4", "unit": "%"}, {"measurement": "inhibition at 50 µg/mL", "setting": "Physalospora piricola", "result": "17.6 ± 1.6", "unit": "%"}, {"measurement": "inhibition at 50 µg/mL", "setting": "Fusarium graminearum", "result": "9.5 ± 0.7", "unit": "%"}, {"measurement": "inhibition at 100 µg/mL", "setting": "TMV [6]", "result": "19.8 ± 2.8", "unit": "%"}, {"measurement": "inhibition at 500 µg/mL", "setting": "TMV [6]", "result": "49.6 ± 3.9", "unit": "%"}, {"measurement": "inhibition at 50 µg/mL", "setting": "Botrytis cinerea", "result": "25 ± 1.8", "unit": "%"}]}]}
